Results as given in patent US11066414B2, “Cot modulators and methods of use thereof” (Gilead Sciences, Inc., priority 2015, dated 2021).
Where two headings read alike, the source gives them in different places.

Key:
TNFα = experiment: Cot Monocyte TNFα Cell Based Assay
Human Cot = Human Cot (Homo sapiens (Human), UniProt P41279); experiment: High Throughput Cot Biochemical Assay
[1] = Homo sapiens, Monocyte, read-out: EC50 TNF, LPS-stimulated human monocytes, TNFα
[2] = IC50 HTRF, Cot HTRF (TR-FRET) biochemical assay
[3] = read-out: IC50 HTRF, Cot HTRF (TR-FRET) biochemical assay
[4] = Homo sapiens, Monocyte, read-out: EC50 TNF, LPS-stimulated human monocytes, TNFα TR-FRET
[5] = IC50 HTRF, Cot HTRF (TR-FRET KinEASE) biochemical assay, 400 μM ATP

Sequence of Human Cot (P41279 30-397): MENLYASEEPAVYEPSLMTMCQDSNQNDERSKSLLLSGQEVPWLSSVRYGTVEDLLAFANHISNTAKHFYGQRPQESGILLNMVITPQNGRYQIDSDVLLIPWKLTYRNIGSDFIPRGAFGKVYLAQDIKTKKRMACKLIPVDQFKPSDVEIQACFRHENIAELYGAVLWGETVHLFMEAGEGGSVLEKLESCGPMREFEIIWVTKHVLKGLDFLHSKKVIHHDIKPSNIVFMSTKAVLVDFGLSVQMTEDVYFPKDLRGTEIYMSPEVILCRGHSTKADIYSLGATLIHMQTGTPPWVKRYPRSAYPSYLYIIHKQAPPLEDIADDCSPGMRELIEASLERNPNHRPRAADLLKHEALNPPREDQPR

| SMILES | EC50 (TNFα; [1]) | IC50 (Human Cot; [2]) | further results |
| --- | --- | --- | --- |
| Cn1ccc2c([C@H](Nc3cc(Cl)c4ncc(C#N)c(NCC5(C(F)(F)F)CCC5)c4c3)c3cn(C4(C(F)F)CC4)nn3)cccc2c1=O [Example 730, (S)-8-chloro-6-(((1-(1-(difluoromethyl)cyclopropyl)-1H-1,2,3-triazol-4-yl)(2-methyl-1-oxo-1,2-dihydroisoquinolin-5-yl)methyl)amino)-4-(((1-(trifluoromethyl)cyclobutyl)methyl)-amino)quinoline-3-carbonitrile] | 89 nM | 10 nM | – |
| [2H][C@](Nc1cc(C#N)c2ncc(C#N)c(N[C@H](CC)c3ccccc3)c2c1)(c1ccc(F)nc1)c1cn(C2CC2)nn1 [Example 117, 6-(((S)-(-cyclopropyl-1H-1,2,3-triazol-4-yl)(6-fluoropyridin-3-yl)methyl-d)amino)-4-(((R)-1-phenylpropyl)amino)quinoline-3,8-dicarbonitrile] | 94 nM | 3 nM | – |
| Cc1ncccc1[C@H](Nc1cc(Cl)c2ncc(C#N)c(Nc3cccc(Cl)c3)c2c1)c1cn(C(C)C)nn1 [Example 225, (S)-8-chloro-4-((3-chlorophenyl)amino)-6-(((1-isopropyl-1H-1,2,3-triazol-4-yl)(2-methylpyridin-3-yl)methyl)amino)quinoline-3-carbonitrile] | 1490 nM | 10 nM | – |
| N#Cc1cnc2c(Cl)cc(NC(c3cccnc3)c3ccccn3)cc2c1Nc1ccc(F)c(Cl)c1 (stereo not shown) [Example 376, 8-chloro-4-((3-chloro-4-fluorophenyl)amino)-6-((pyridin-2-yl(pyridin-3-yl)methyl)amino)-quinoline-3-carbonitrile] | > 1000 nM | – | IC50 (Human Cot; [3]): 182 nM |
| Cc1nc(F)ccc1[C@H](Nc1cc(C#N)c2ncc(C#N)c(NCC(C)(C)C)c2c1)c1cn(CC(F)F)nn1 [Example 634, (S)-6-(((1-(2,2-dinuoroethyl)-1H-1,2,3-triazol-4-yl)(6-fluoro-2-methylpyridin-3-yl)methyl)amino)-4-(neopentylamino)quinoline-3,8-dicarbonitrile] | – | – | EC50 (TNFα; read-out: EC50 TNF, LPS-stimulated human monocytes, TNFα): 43 nM; IC50 (Human Cot; [3]): 2 nM |
| Cc1nc(F)ccc1[C@H](Nc1cc(Cl)c2ncc(C#N)c(N[C@H]3CCOCC3(C)C)c2c1)c1cn(C2(C(F)F)CC2)nn1 [Example 540, 8-chloro-6-(((S)-(1-(1-(difluoromethyl)-cyclopropyl)-1H-1,2,3-triazol-4-yl)(6-fluoro-2-methylpyridin-3-yl)methyl)-amino)-4-(((S)-3,3-dimethyltetrahydro-2H-pyran-4-yl)amino)quinoline-3-carbonitrile] | 760 nM | 50 nM | – |
| Cn1ccc2c([C@H](Nc3cc(C#N)c4ncc(C#N)c(NCC(C)(C)C)c4c3)c3cn(C4(CF)CC4)nn3)cccc2c1=O [Example 878, (S)-6-(((1-(1-(fluoromethyl)cyclopropyl)-1H-1,2,3-triazol-4-yl)(2-methyl-1-oxo-1,2-dihydroisoquinolin-5-yl)methyl)amino)-4-(neopentylamino)quinoline-3,8-dicarbonitrile] | – | – | EC50 (TNFα; [4]): 31 nM; IC50 (Human Cot; [5]): 2 nM |
| CN(C)CCn1cc([C@@H](Nc2cc(Cl)c3ncc(C#N)c(Nc4ccc(F)c(Cl)c4)c3c2)c2cscn2)nn1 [Example 355, (S)-8-chloro-4-((3-chloro-4-fluorophenyl)amino)-6-(((1-(2-(dimethylamino)ethyl)-1H-1,2,3-triazol-4-yl)(thiazol-4-yl)methyl)-amino)quinoline-3-carbonitrile] | 194 nM | 5 nM | – |
| Cc1ncsc1[C@H](Nc1cc(Cl)c2ncc(C#N)c(N[C@H](C)c3ccccc3)c2c1)c1cn(C2CCN(C(C)(C)C)CC2)nn1 [Example 240, 6-(((R)-(1-(1-(tert-butyl)piperidin-4-yl)-1H-1,2,3-triazol-4-yl)(4-methylthiazol-5-yl)methyl)amino)-8-chloro-4-(((R)-1-phenylethyl)amino)quinoline-3-carbonitrile] | 631 nM | 16 nM | – |
| CC(C)(C)CNc1c(C#N)cnc2c(C#N)cc(N[C@@H](c3ccc(C#N)nc3)c3cn(C4(C(F)(F)F)CC4)nn3)cc12 [Example 826, (S)-6-(((6-cyanopyridin-3-yl)(1-(1-(trifluoromethyl)cyclopropyl)-1H-1,2,3-triazol-4-yl)methyl)amino)-4-(neopentylamino)quinoline-3,8-dicarbonitrile] | – | – | EC50 (TNFα; [4]): 1000 nM; IC50 (Human Cot; [5]): 51 nM |
| CC[C@@H](Nc1c(C#N)cnc2c(Cl)cc(N[C@@H](c3cccnc3)c3cn(C4CC4)nn3)cc12)c1ccccc1 [Example 191, 8-chloro-6-(((S)-(1-cyclopropyl-1H-1,2,3-triazol-4-yl)(pyridin-3-yl)methyl)amino)-4-(((R)-1-phenylpropyl)amino)quinoline-3-carbonitrile] | 104 nM | 2 nM | – |
| CC(C)(C)CNc1c(C#N)cnc2c(C#N)cc(N[C@H](c3cn(C4CC4)nn3)c3cccc4cnccc34)cc12 [Example 468, (S)-6-(((1-cyclopropyl-1H-1,2,3-triazol-4-yl)(isoquinolin-5-yl)methyl)amino)-4-(neopentylamino)quinoline-3,8-dicarbonitrile] | 18 nM | 1 nM | – |

The next lines start with results.

| EC50 (TNFα; [1]) | IC50 (Human Cot; [2]) | SMILES | further results |
| --- | --- | --- | --- |
| 180 nM | 6 nM | Cc1nc(F)ccc1[C@H](Nc1cc(Cl)c2ncc(C#N)c(NCC(C)(C)C)c2c1)c1cn(C(C)(C)C(F)(F)F)nn1 [Example 541, (S)-8-chloro-6-(((6-fluoro-2-methyl-pyridin-3-yl)(1-(1,1,1-trifluoro-2-methylpropan-2-yl)-1H-1,2,3-triazol-4-yl)methyl)amino)-4-(neopentylamino)-quinoline-3-carbonitrile] | – |
| 33 nM | 2 nM | CC(C)n1ccc2c([C@H](Nc3cc(Cl)c4ncc(C#N)c(NCC(C)(C)C)c4c3)c3cn(C45CC(C4)C5)nn3)cccc2c1=O [Example 772, (S)-6-(((1-(bicyclo[1.1.1]pentan-1-yl)-1H-1,2,3-triazol-4-yl)(2-isopropyl-1-oxo-1,2-dihydroisoquinolin-5-yl)methyl)amino)-8-chloro-4-(neopentylamino)quinoline-3-carbonitrile] | – |
| 36 nM | 3 nM | Cc1nc(F)ccc1[C@H](Nc1cc(Cl)c2ncc(C#N)c(NCC(C)(C)C)c2c1)c1cn(Cc2c(F)cccc2F)nn1 [Example 654, (S)-8-chloro-6-(((1-(2,6-difluorobenzyl)-1H-1,2,3-triazol-4-yl)(6-fluoro-2-methylpyridin-3-yl)methyl)amino)-4-(neopentylamino)quinoline-3-carbonitrile] | – |
| 75 nM | 2 nM | CC(C)(C)CNc1c(C#N)cnc2c(Cl)cc(N[C@H](c3cn(C4(C(F)F)CC4)nn3)c3cccc4ccncc34)cc12 [Example 537, (S)-8-chloro-6-(((1-(1-(difluoromethyl)-cyclopropyl)-1H-1,2,3-triazol-4-yl)(isoquinolin-8-yl)methyl)amino)-4-(neopentylamino)quinoline-3-carbonitrile] | – |
| 27 nM | 3 nM | Cn1ccc2c([C@H](Nc3cc(Cl)c4ncc(C#N)c(NCC(C)(C)C)c4c3)c3cn(C4(CF)CC4)nn3)cccc2c1=O [Example 775, (S)-8-chloro-6-(((1-(1-(fluoromethyl)cyclopropyl)-1H-1,2,3-triazol-4-yl)(2-methyl-1-oxo-1,2-dihydroisoquinolin-5-yl)methyl)amino)-4-(neopentylamino)quinoline-3-carbonitrile] | – |
| 40 nM | 3 nM | Cc1nc(F)ccc1[C@H](Nc1cc(Cl)c2ncc(C#N)c(NCC(C)(C)C(F)(F)F)c2c1)c1cn(C2(C3CC3)CC2)nn1 [Example 763, (S)-6-(((1-([1,1′-bi(cyclopropan)]-1-yl)-1H-1,2,3-triazol-4-yl)(6-fluoro-2-methylpyridin-3-yl)methyl)amino)-8-chloro-4-((3,3,3-trifluoro-2,2-dimethylpropyl)amino)-quinoline-3-carbonitrile] | – |
| 806 nM | 58 nM | Cc1nc([C@H](Nc2cc(Cl)c3ncc(C#N)c(NCC(C)(C)C)c3c2)c2cn(C3(C(F)F)CC3)nn2)c(C)o1 [Example 639, (S)-8-chloro-6-(((1-(1-(difluoromethyl)cyclopropyl)-1H-1,2,3-triazol-4-yl)(2,5-dimethyloxazol-4-yl)methyl)amino)-4-(neopentylamino)quinoline-3-carbonitrile] | – |
| 433 nM | 1 nM | CC(C)(C)CNc1c(C#N)cnc2c(C#N)cc(N[C@H](c3cn(C4(C(N)=O)CCC4)nn3)c3cccc4ncccc34)cc12 [Example 576, (S)-1-(4-(((3,8-dicyano-4-(neopentyl-amino)quinolin-6-yl)amino)(quinolin-5-yl)methyl)-1H-1,2,3-triazol-1-yl)cyclobutane-1-carboxamide] | – |
| 164 nM | 4 nM | Cn1ncc2c([C@H](Nc3cc(Cl)c4ncc(C#N)c(NCC(C)(C)C)c4c3)c3cn(C4(C)CC4)nn3)cccc21 [Example 525, (S)-8-chloro-6-(((1-methyl-1H-indazol-4-yl)(1-(1-methylcyclopropyl)-1H-1,2,3-triazol-4-yl)methyl)amino)-4-(neopentylamino)quinoline-3-carbonitrile] | – |
| 250 nM | 21 nM | Cc1ccc([C@H](Nc2cc(C#N)c3ncc(C#N)c(NCC(C)(C)C)c3c2)c2cn(C3(C(F)(F)F)CC3)nn2)c(F)n1 [Example 690, (S)-6-(((2-fluoro-6-methylpyridin-3-yl)(1-(1-(trifluoromethyl)cyclopropyl)-1H-1,2,3-triazol-4-yl)methyl)amino)-4-(neopentylamino)quinoline-3,8-dicarbonitrile] | – |
| 124 nM | 2 nM | CC(C)(C)CNc1c(C#N)cnc2c(Cl)cc(N[C@H](c3cn(C4(C(N)=O)CC4)nn3)c3cccc4ncsc34)cc12 [Example 416, (S)-1-(4-(benzo[d]thiazol-7-yl((8-chloro-3-cyano-4-(neopentylamino)quinolin-6-yl)amino)methyl)-1H-1,2,3-triazol-1-yl)cyclopropane-1-carboxamide] | – |
